Reference: article PMC4240915, “Insights into the posttranslational assembly of the Mo-, S- and Cu-containing cluster in the active site of CO dehydrogenase of Oligotropha carboxidovorans” (Journal of Biological Inorganic Chemistry, 2014)

Key:
[1] = target: T1, CO dehydrogenase (molybdenum site on CoxL) (Afipia carboxidovorans, UniProt P19919); assay: Mo(V) EPR at […] K; assay type: binding; conditions: 15 mM ligand, 50 mM HEPES pH 7.2, N2, 25 min room temperature; resulfurated copper-free [MoO2S] enzyme; covalent (mixed disulfide at Mo-bound sulfur)
T1 construct: native enzyme purified from O. carboxidovorans OM5; Mo-, Fe-S- and FAD-containing; Cu and sulfane sulfur removed by KCN, then resulfurated to the [MoO2S] form (copper-free); with Carbon monoxide dehydrogenase medium chain; Carbon monoxide dehydrogenase small chain
T1 sequence (P19919 1-809): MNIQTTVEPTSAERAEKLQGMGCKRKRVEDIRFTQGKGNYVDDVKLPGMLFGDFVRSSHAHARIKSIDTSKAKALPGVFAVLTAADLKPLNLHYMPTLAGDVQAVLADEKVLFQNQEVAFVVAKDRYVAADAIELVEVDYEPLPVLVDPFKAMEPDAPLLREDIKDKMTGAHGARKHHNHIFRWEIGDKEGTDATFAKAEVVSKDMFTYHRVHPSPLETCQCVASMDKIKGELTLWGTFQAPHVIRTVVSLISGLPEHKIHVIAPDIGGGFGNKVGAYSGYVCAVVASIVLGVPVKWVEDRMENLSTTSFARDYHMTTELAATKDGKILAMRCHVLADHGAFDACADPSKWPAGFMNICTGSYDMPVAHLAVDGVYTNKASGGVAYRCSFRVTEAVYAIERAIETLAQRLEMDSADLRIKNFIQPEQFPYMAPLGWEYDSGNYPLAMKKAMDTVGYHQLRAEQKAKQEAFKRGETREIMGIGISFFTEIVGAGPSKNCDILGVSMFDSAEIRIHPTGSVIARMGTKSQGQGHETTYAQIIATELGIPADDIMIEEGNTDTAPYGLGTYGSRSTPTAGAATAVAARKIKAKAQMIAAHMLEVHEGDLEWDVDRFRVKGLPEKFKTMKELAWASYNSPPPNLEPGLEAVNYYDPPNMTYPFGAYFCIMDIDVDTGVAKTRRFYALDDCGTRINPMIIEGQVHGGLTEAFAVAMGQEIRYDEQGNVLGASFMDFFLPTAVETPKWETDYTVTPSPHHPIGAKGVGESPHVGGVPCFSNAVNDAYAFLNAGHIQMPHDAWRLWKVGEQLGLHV
T1 sequence (P19921 1-166 partner): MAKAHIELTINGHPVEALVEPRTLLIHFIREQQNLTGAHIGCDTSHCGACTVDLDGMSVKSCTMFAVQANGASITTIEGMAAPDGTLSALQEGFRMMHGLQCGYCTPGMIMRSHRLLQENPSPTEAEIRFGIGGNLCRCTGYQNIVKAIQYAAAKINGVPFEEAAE
T1 sequence (P19920 1-288 partner): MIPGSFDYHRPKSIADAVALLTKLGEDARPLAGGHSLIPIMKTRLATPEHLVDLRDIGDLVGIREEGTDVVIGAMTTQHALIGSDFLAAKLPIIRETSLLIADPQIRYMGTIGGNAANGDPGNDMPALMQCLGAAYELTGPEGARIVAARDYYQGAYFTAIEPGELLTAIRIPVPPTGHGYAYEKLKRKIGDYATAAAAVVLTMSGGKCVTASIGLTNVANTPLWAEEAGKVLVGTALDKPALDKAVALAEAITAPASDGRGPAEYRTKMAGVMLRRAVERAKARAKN

[2] = target: T2, CO dehydrogenase (FAD site on CoxM) (Afipia carboxidovorans, UniProt P19920); assay: photometric assay of CO oxidation with INT as electron acceptor; assay type: biochemical; conditions: electron acceptor with CO as electron donor, 30 °C; acceptor site (FAD) not shown in the paper
T2 construct: native enzyme purified from wild-type O. carboxidovorans OM5; same complex as P1, as isolated with [CuSMoO2] cluster; with Carbon monoxide dehydrogenase large chain; Carbon monoxide dehydrogenase small chain
T2 sequence (P19920 1-288): T1 sequence (P19920 1-288 partner)
T2 sequence (P19919 1-809 partner): T1 sequence (P19919 1-809)
T2 sequence (P19921 1-166 partner): T1 sequence (P19921 1-166 partner)

[3] = target: T2, CO dehydrogenase (FAD site on CoxM); assay: spectrophotometric FAD determination at […] nm after trichloroacetic acid precipitation; assay type: binding; conditions: wild-type enzyme from CO-grown cells; co-purified cofactor

## N[C@@H](CS)C(=O)O [L-cysteine]
[1]
  Mo(V) EPR at 120 K: SH group of the studied sulfur compounds can bind to the equatorial sulfur of [MoO2S]

## O=[N+]([O-])c1ccc(-[n+]2nc(-c3ccccc3)nn2-c2ccc(I)cc2)cc1 [INT, 1-phenyl-2-(4-iodo-phenyl)-3-(4-nitrophenyl)-2H-tetrazolium chloride]
[2]
  photometric assay of CO oxidation with INT as electron acceptor: CO-oxidizing activity was assayed photometrically employing INT

## Cc1cc2nc3c(=O)[nH]c(=O)nc-3n(C[C@H](O)[C@H](O)[C@H](O)COP(=O)(O)OP(=O)(O)OC[C@H]3O[C@@H](n4cnc5c(N)ncnc54)[C@H](O)[C@@H]3O)c2cc1C [FAD]
[3]
  Wild type (CO): 1.93 ± 0.08 mol per mol
